Data on six molecules can be found in PMC4052304, “New Benzoxazine Secondary Metabolites from an Arctic Actinomycete” (Marine Drugs, 2014).

Where two headings read alike, the source gives them in different places.

Series [1] addresses Candida albicans isocitrate lyase (ICL) (Candida albicans, UniProt Q9P8Q7). The series is described as follows: Inhibition of the isocitrate lyase (ICL) activity assay. Format: biochemical. Particulars: for inhibitory activity towards ICL (in words): even at high concentrations (100 μg/mL). The method, then: The formation of glyoxylate phenylhydrazone in the presence of phenylhydrazine and isocitrate was measured spectrophotometrically at 324 nm. The enzyme reaction mixture (1 mL) included 1.27 mM threo-DS (+) isocitrate, 3.75 mM MgCl2, 4.1 mM phenylhydrazine, 20 mM sodium phosphate buffer (pH 7.0), and 2.5 μg/mL purified C. albicans ICL. The reaction was performed at 37 °C for 30 min, and the protein concentration was measured using the Bradford method and a Bio-Rad protein assay Kit (Bio-Rad, Alfred Nobel Dr. Hercules, CA, USA) with bovine serum albumin as a standard.

Series [2] concerns HCT116, A549, SNU638, SK-HEP1, K562 and MDA-MB231 human carcinoma cell lines. The series is described as follows: Anti-proliferative activity, SRB assay, panel of six human carcinoma cell lines. It counts as cell-based. Particulars: 72 h. The method, then: (§1) Cell proliferation was analyzed using the sulforhodamine B (SRB) assay. Six human cancer cell lines (HCT116, MDA-MB231, SNU638, A549, K562, and SK-HEP1 at 3 × 10^4 cells/mL) were seeded in 96-well plates at different compound concentrations before incubating at 37 °C in a humidified atmosphere with 5% CO2. After 72 h of treatment, the cells were fixed with a 10% TCA solution for 1 h before staining the cellular proteins with 0.4% SRB in 1% acetic acid. The stained cells were dissolved in 10 mM Tris buffer (pH 10.0). The effects of the compounds on cell proliferation were calculated as percentages relative to the solvent-treated control. In addition, the IC50 values were determined by nonlinear regression analysis (percent survival versus concentration).
(The SRB assay estimates cell density from bound dye.)

Series [3] has as its system SK-HEP1 (liver cancer) cells. As to the kind of experiment: Anti-proliferative activity, SRB assay, SK-HEP1. Particulars: Homo sapiens, SK-HEP1, 72 h, read-out: IC50, cytotoxicity against SK-HEP1. Format: cell-based. The method, then: as §1
The test system of series [4] is HCT116 (colon cancer) cells. The series is described as follows: Anti-proliferative activity, SRB assay, HCT116. Format: cell-based. Particulars: Homo sapiens, HCT-116, 72 h, read-out: IC50, cytotoxicity against HCT116. The method, then: as §1
Series [5] deals with SNU638 (gastric cancer) cells. As to the kind of experiment: Anti-proliferative activity, SRB assay, SNU638. It counts as cell-based. Conditions: Homo sapiens, SNU-638, 72 h, read-out: IC50, cytotoxicity against SNU638. How it is done:
as §1

The test system of series [6] is MDA-MB231 (breast cancer) cells. As to the kind of experiment: Anti-proliferative activity, SRB assay, MDA-MB231. It counts as cell-based. Particulars: Homo sapiens, MDA-MB-231, 72 h, read-out: IC50, cytotoxicity against MDA-MB231. The method, then:
as §1

The test system of series [7] is K562 (leukemia cancer) cells. The series is described as follows: Anti-proliferative activity, SRB assay, K562. It counts as cell-based. Conditions: Homo sapiens, K562, 72 h, read-out: IC50, cytotoxicity against K562. The method, then:
as §1

The test system of series [8] is A549 (lung cancer) cells. As to the kind of experiment: Anti-proliferative activity, SRB assay, A549. Format: cell-based. Particulars: Homo sapiens, A549, 72 h, read-out: IC50, cytotoxicity against A549. How it is done: as §1
The mark [9] stands for this setting: purified C. albicans ICL 2.5 μg/mL, 37 °C, 30 min, pH 7.0, read-out: IC50, inhibition of Candida albicans isocitrate lyase (ICL).

Sequence of Candida albicans isocitrate lyase (ICL) (Q9P8Q7 whole entry): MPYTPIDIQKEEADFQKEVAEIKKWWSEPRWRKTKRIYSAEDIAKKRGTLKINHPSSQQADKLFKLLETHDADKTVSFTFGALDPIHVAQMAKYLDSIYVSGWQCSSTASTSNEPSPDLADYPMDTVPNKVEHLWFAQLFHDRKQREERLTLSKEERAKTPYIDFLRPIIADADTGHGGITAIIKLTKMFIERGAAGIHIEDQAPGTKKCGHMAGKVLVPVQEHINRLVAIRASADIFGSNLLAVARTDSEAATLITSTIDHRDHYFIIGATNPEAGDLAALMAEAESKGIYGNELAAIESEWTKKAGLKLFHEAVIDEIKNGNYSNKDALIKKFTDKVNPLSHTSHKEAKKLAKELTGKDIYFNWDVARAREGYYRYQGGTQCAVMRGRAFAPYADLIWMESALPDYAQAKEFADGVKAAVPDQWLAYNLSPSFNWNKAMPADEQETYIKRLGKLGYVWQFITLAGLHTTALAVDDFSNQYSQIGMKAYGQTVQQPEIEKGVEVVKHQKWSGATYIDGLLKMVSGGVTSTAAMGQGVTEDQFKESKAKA

In general, IC50 refers to the midpoint of a concentration-inhibition curve. In the case of `O=C(O)CC[N+](=O)[O-]` [3-nitropropionic acid, reference compound], the 50% inhibitory concentration (IC50) in series [1] (setting [9]) was determined as 35.2 µM.
Regarding `C=C1Oc2cc(OC)cc(C(=O)OC[C@H]3O[C@H](OC[C@H]4O[C@H](O)[C@H](O)[C@@H](O)[C@@H]4O)[C@H](O)[C@@H](O)[C@@H]3O)c2NC1=O` [Compound 1, arcticoside], the “cytotoxicity against human carcinoma cell lines (in words)” value in series [2] was “did not display notable inhibitory activity”. The IC50 in series [1] (setting [9]) stood at 30.4 µM.
`C=C1Oc2cc(OC)cc(C(=O)O[C@H]3COC(=O)C[C@H](N)c4cc(O)c(c(Cl)c4)O[C@@H]4c5ccc3c(Cl)c5C3=CC=C[C@@]34O[C@@H]3OC(C)(C)[C@@H](N(C)C)[C@@H](O)[C@H]3O)c2NC1=O` [Compound 2, C-1027 chromophore-V]: the 50% inhibitory concentration (IC50) in series [3] came to 7.9 µM; in series [4], 2.7 µM; in series [5], 9.8 µM; in series [1] it was 37.9 µM; in series [6], 0.9 µM; in series [7] it was 25.1 µM. Further, in series [8], the IC50 came out at 14.7 µM.
Consider `C=C1Oc2cc(OC)cc(C(=O)O[C@H]3COC(=O)C[C@H](N)c4cc(O)c(c(Cl)c4)O[C@@H]4c5ccc3cc5C3=CC=C[C@@]34O[C@@H]3OC(C)(C)[C@@H](N(C)C)[C@@H](O)[C@H]3O)c2NC1=O` [Compound 3, C-1027 chromophore-III], for which the IC50 came to 0.9 µM in series [3]; 0.6 µM in series [4]; 1.1 µM in series [5]; 25.6 µM in series [1]; 44 µM in series [6]; 4.8 µM in series [7]. The IC50 in series [8] worked out at 2.2 µM.
`CC(=O)N[C@H]1CC(=O)OC[C@H](O)c2ccc3c(c2Cl)C2=CC=C[C@]2(O[C@@H]2OC(C)(C)[C@@H](N(C)C)[C@@H](O)[C@H]2O)[C@@H]3Oc2c(O)cc1cc2Cl` [Compound 4, fijiolide A]: the “inhibitory activity towards ICL (in words)” value in series [1] is “no activity”.
On the same count and under the same terms, the same measure for `CN(C)[C@H]1[C@@H](O)[C@@H](O)[C@H](O[C@]23C=CC=C2c2c4ccc(c2Cl)[C@@H](O)COC(=O)C[C@H](N)c2cc(O)c(c(Cl)c2)O[C@H]43)OC1(C)C` [Compound 5, fijiolide B]: “no activity”.
